Reference: US7396837B2, “Antitumoral analogs of lamellarins” (Pharma Mar, S.A.U., priority 2002, dated 2008)

How the values were obtained:
Type in all cases: cell-based
[1] = system: LNCaP; assay: SRB colorimetric cell growth inhibition assay, LNCaP; details: Homo sapiens, LNCaP, LN-caP
Summary of the method: (§1)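 Growth inhibition (GI), cytostatic total growth inhibition (TGI) and cytotoxic cell-kill (LC) parameters were calculated from SRB-stained cultures held under constant compound exposure, triplicates averaged.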

[2] = system: IGROV; assay: SRB colorimetric cell growth inhibition assay, IGROV; details: Homo sapiens, IGROV
Summary of the method: as §1

[3] = system: HeLa-APL; assay: SRB colorimetric cell growth inhibition assay, HeLa-APL (aplidine resistant); details: Homo sapiens, HELA-APL
Summary of the method: as §1

[4] = system: LoVo-Dox; assay: SRB colorimetric cell growth inhibition assay, LoVo-Dox (MDR); details: Homo sapiens, LOVO-DOX
Summary of the method: as §1

[5] = system: HT-29; assay: SRB colorimetric cell growth inhibition assay, HT-29; details: Homo sapiens, HT-29, HT-29
Summary of the method: as §1

[6] = system: K-562; assay: SRB colorimetric cell growth inhibition assay, K-562; details: Homo sapiens, K562, K-562
Summary of the method: as §1

[7] = system: DU-145; assay: SRB colorimetric cell growth inhibition assay, DU-145; details: Homo sapiens, DU-145, DU-145
Summary of the method: as §1

[8] = system: SK-MEL-28; assay: SRB colorimetric cell growth inhibition assay, SK-MEL-28; details: Homo sapiens, SK-MEL-28, MEL-28
Summary of the method: as §1

[9] = system: PANC-1; assay: SRB colorimetric cell growth inhibition assay, PANC-1; details: Homo sapiens, PANC-1, PANC-1
Summary of the method: as §1

[10] = system: HeLa; assay: SRB colorimetric cell growth inhibition assay, HeLa; details: Homo sapiens, HeLa
Summary of the method: as §1

[11] = system: IGROV-ET; assay: SRB colorimetric cell growth inhibition assay, IGROV-ET (ET-743 resistant); details: Homo sapiens, IGROV-ET
Summary of the method: as §1

[12] = system: SK-BR-3; assay: SRB colorimetric cell growth inhibition assay, SK-BR-3; details: Homo sapiens, SK-BR-3, SK-BR-3
Summary of the method: as §1

[13] = system: LoVo; assay: SRB colorimetric cell growth inhibition assay, LoVo; details: Homo sapiens, LoVo
Summary of the method: as §1

[14] = system: A-549; assay: SRB colorimetric cell growth inhibition assay, A-549; details: Homo sapiens, A549, A-549
Summary of the method: as §1

Structure (SMILES): COc1cc(-c2c3c4cc(OC)c(O)cc4oc(=O)c3n3ccc4c([N+](=O)[O-])cccc4c23)ccc1O [Compound 53]
- GI50 ([1]; GI=growth inhibition, read-out: GI50 LN-caP): 4.01 µM
- CC50 ([1]; LC=cell killing (cytotoxic effect), read-out: LC50 LN-caP): 20.1 µM
- IC (TGI) ([1]; TGI=total growth inhibition (cytostatic effect), read-out: TGI LN-caP): 9.75 µM
- GI50 ([2]; GI=growth inhibition, read-out: GI50 IGROV): 1.38 µM
- CC50 ([2]; LC=cell killing (cytotoxic effect), read-out: LC50 IGROV): 20.1 µM
- IC (TGI) ([2]; TGI=total growth inhibition (cytostatic effect), read-out: TGI IGROV): 20.1 µM
- GI50 ([3]; GI=growth inhibition, read-out: GI50 HELA-APL): 20.1 µM
- CC50 ([3]; LC=cell killing (cytotoxic effect), read-out: LC50 HELA-APL): 20.1 µM
- IC (TGI) ([3]; TGI=total growth inhibition (cytostatic effect), read-out: TGI HELA-APL): 20.1 µM
- GI50 ([4]; GI=growth inhibition, read-out: GI50 LOVO-DOX): 20.1 µM
- CC50 ([4]; LC=cell killing (cytotoxic effect), read-out: LC50 LOVO-DOX): 20.1 µM
- IC (TGI) ([4]; TGI=total growth inhibition (cytostatic effect), read-out: TGI LOVO-DOX): 20.1 µM
- GI50 ([5]; GI=growth inhibition, read-out: GI50 HT-29): 2.17 µM
- CC50 ([5]; LC=cell killing (cytotoxic effect), read-out: LC50 HT-29): 20.1 µM
- IC (TGI) ([5]; TGI=total growth inhibition (cytostatic effect), read-out: TGI HT-29): 20.1 µM
- GI50 ([6]; GI=growth inhibition, read-out: GI50 K-562): 10.3 µM
- CC50 ([6]; LC=cell killing (cytotoxic effect), read-out: LC50 K-562): 20.1 µM
- IC (TGI) ([6]; TGI=total growth inhibition (cytostatic effect), read-out: TGI K-562): 20.1 µM
- GI50 ([7]; GI=growth inhibition, read-out: GI50 DU-145): 4.53 µM
- CC50 ([7]; LC=cell killing (cytotoxic effect), read-out: LC50 DU-145): 20.1 µM
- IC (TGI) ([7]; TGI=total growth inhibition (cytostatic effect), read-out: TGI DU-145): 12.3 µM
- GI50 ([8]; GI=growth inhibition, read-out: GI50 MEL-28): 4.03 µM
- CC50 ([8]; LC=cell killing (cytotoxic effect), read-out: LC50 MEL-28): 20.1 µM
- IC (TGI) ([8]; TGI=total growth inhibition (cytostatic effect), read-out: TGI MEL-28): 15.5 µM
- GI50 ([9]; GI=growth inhibition, read-out: GI50 PANC-1): 1.03 µM
- CC50 ([9]; LC=cell killing (cytotoxic effect), read-out: LC50 PANC-1): 20.1 µM
- IC (TGI) ([9]; TGI=total growth inhibition (cytostatic effect), read-out: TGI PANC-1): 9.67 µM
- GI50 ([10]; GI=growth inhibition, read-out: GI50 HELA): 0.59 µM
- CC50 ([10]; LC=cell killing (cytotoxic effect), read-out: LC50 HELA): 20.1 µM
- IC (TGI) ([10]; TGI=total growth inhibition (cytostatic effect), read-out: TGI HELA): 12.3 µM
- GI50 ([11]; GI=growth inhibition, read-out: GI50 IGROV-ET): 20.1 µM
- CC50 ([11]; LC=cell killing (cytotoxic effect), read-out: LC50 IGROV-ET): 20.1 µM
- IC (TGI) ([11]; TGI=total growth inhibition (cytostatic effect), read-out: TGI IGROV-ET): 20.1 µM
- GI50 ([12]; GI=growth inhibition, read-out: GI50 SK-BR-3): 1.99 µM
- CC50 ([12]; LC=cell killing (cytotoxic effect), read-out: LC50 SK-BR-3): 20.1 µM
- IC (TGI) ([12]; TGI=total growth inhibition (cytostatic effect), read-out: TGI SK-BR-3): 9.49 µM
- GI50 ([13]; GI=growth inhibition, read-out: GI50 LOVO): 11.1 µM
- CC50 ([13]; LC=cell killing (cytotoxic effect), read-out: LC50 LOVO): 20.1 µM
- IC (TGI) ([13]; TGI=total growth inhibition (cytostatic effect), read-out: TGI LOVO): 20.1 µM
- GI50 ([14]; GI=growth inhibition, read-out: GI50 A-549): 5.66 µM
- CC50 ([14]; LC=cell killing (cytotoxic effect), read-out: LC50 A-549): 20.1 µM
- IC (TGI) ([14]; TGI=total growth inhibition (cytostatic effect), read-out: TGI A-549): 20.1 µM
